Target: T1, purine nucleoside phosphorylase (PNP) (Bos taurus, UniProt P55859)
T1 sequence (P55859 1-289): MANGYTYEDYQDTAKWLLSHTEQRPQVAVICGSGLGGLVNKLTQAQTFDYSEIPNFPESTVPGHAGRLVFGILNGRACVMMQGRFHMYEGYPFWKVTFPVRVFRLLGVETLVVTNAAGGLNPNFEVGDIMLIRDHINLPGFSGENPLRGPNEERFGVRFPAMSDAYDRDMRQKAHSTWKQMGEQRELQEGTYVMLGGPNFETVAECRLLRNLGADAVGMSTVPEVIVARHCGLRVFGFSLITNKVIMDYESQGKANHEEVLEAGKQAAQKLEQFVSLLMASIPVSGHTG
Test: Purine nucleoside phosphorylase (PNP) radiochemical enzyme assay, [14C]-hypoxanthine formation from [14C]-inosine

[1] = IC50 (nM), table of Examples 36-42, phosphate concentration not printed in table (Ex. 37 and 38 values agree with 1 mM phosphate in text)
[2] = IC50 (PNP inhibition), 1 mM phosphate, calf spleen PNP
[3] = IC50 (PNP inhibition), 50 mM phosphate, calf spleen PNP

Compound	IC50 [1] [nM]	IC50 [2] [nM]	IC50 [3] [nM]	enzyme inhibition activity (IC50), in words (phosphate concentration not stated)
N#CCC(c1cccc(Cl)c1)c1c[nH]c2c(=O)[nH]cnc12 (stereo not shown) [Example 40]	10			
N#CCC(c1cc(Cl)cc(Cl)c1Cl)c1c[nH]c2c(=O)[nH]c(N)nc12 (stereo not shown) [Example 8A]		640	10000	
COC(=O)CC(c1ccccc1)c1c[nH]c2c(=O)[nH]c(N)nc12 (stereo not shown) [Example 19, 3-(2-amino-4-oxo-3H,5H-pyrrolo[3,2-d]pyrimidin-7-yl)-3-phenylpropanoic acid, methyl ester]				Significant activity
Nc1nc(O)c2[nH]cc(C(CC(=O)O)c3ccccc3)c2n1 (stereo not shown) [Example 15, 3-(2-amino-4-oxo-3H,5H-pyrrolo[3,2-d]pyrimidin-7-yl)-3-phenylpropanoic acid]		12	190	
Nc1nc(O)c2[nH]c(N)c(Cc3cccs3)c2n1 [2,6-diamino-3,5-dihydro-7-(2-thienylmethyl)-4H-pyrollo-[3,2-d]pyrimidine-4-one, reference compound]	160			
